“Also recorded” adds a separate entry of the source.
What was measured:
[1] = tested on: αMHC-TRF2 mice and non-transgenic littermates; assay: Doxorubicin cardiomyopathy in αMHC-TRF2 mice and non-transgenic littermates; details: 15 mg/kg intraperitoneally
Method: Cardiac-specific transgenic mice were created by subcloning the TRF2 and dnTRF2 cDNAs behind the 5.5 kb mouse αMHC promoter (Subramaniam et al., 1991). The resultant plasmids were injected into the pronuclei of fertilized FVB/N oocytes, and tail DNA was used to screen for inheritance of the transgenes. Doppler and M-mode echocardiography were performed as described (Oh et al., 2003; and Minamino et al., 2002).
To test for cardiac protection, 10-12 week-old αLMHC-TRF2 mice (n=14) and non-transgenic littermates (n=14) were injected intraperitoneally with 15 mg/kg doxorubicin.

[2] = tested on: poly (ADP-ribose) polymerase (PARP); assay: PARP cleavage / total PARP by Western blot in cultured cardiomyocytes; format: cell-based, rat
From the text: (§1) Proteins were resolved by electrophoresis in 10% SDS-polyacrylamide gels and transferred to membranes by electroblotting. Antibodies were: human and mouse TRF2 (Calbiochem), human and mouse TRF1 (Calbiochem), phospho-Chk2 (Thr68; Cell Signaling), sarcomeric a-actin and myc (Sigmna), FLAG epitope (M2, Kodak), GFP (Clontech), Chk2 (Santa Cruz), poly (ADP-ribose) polymerase (PARP, Oncogene). To detect exogenous TRF2 in virus infected cardiomyocytes, goat and rabbit antibodies to TRF2 were used (C-16, H-300, Santa Cruz); endogenous rat TRF2 was detected using rabbit antibody to TRF2 (Alpha Diagnostic International). After blocking with 5% non-fat milk plus 0.1% Tween-20, blots were incubated with primary antibodies (1:500), horseradish peroxidase-conjugated secondary antibodies (1:3000; Amersham Pharmacia Biotech), and enhanced chemiluminescence reagents (Amersham Pharmacia Biotech).
Cells were lysed in 20 mM HEPES, pH 7.4, 2 mM EGTA, 50 mM glycerophosphate, 1% Triton X-100, 10% glycerol, 1 mM dithiothreitol, 2 μg/ml leupeptin, 5 μg/ml aprotinin, 1 mM phenylmethylsulfonyl fluoride, 1 mM Na3VO4. Lysates were resolved by SDS-polyacrylamide gel electrophoresis and transferred to optitran (Schleicher & Schuell, Keene, N.H.) membranes for Western blotting. […]

[3] = tested on: TRF2; assay: Western blot of TRF2 protein levels in cultured cardiomyocytes; format: cell-based, rat
From the text: Ventricular myocytes from 2 day-old Sprague-Dawley rats were purified and cultured (Oh, H. et al., 2001; Akli, S. et al., 1999); by this age, ventricular myocytes become refractory to serum-induced Gl exit, after initial serum-starvation in vitro (Akli, S. et al., 1999). Plasmids for human TRF1, TRF2, and the corresponding dominant-negative truncations (TRF1DM, TRF2DBDM) were provided by Dr. Titia de Lange (Rockefeller University) (Karlseder, J. et al., 1999). Adenoviruses coexpressing enhanced green fluorescent protein (eGFP) were generated using pAdTrack-cytomegalovirus (CMV) and pShuttle-CMV (provided by Dr. Bert Vogelstein, Johns Hopkins Oncology Center) (Oh, H. et al., 2001; He, T. C., 1998). Myocytes were infected using a multiplicity of infection of 20. To visualize TRF1/2 after gene transfer, myocytes were fixed in 70% ethanol, then incubated sequentially with tetramethyl rhodamine isothiocyanate-conjugated MF-20 antibody to sarcomeric myosin heavy chains to confirm cell type (University of Iowa Hybridoma Bank), rabbit antibodies to TRF1 and TRF2 (#581420 and 581425; 1:500, Calbiochem) and fluorescein isothiocyanate (FITC)-conjugated goat antibody to rabbit IgG (1:1000, Sigma). Nuclei were stained with 4′,6-diamidino-2-phenylindole (DAPI). Images were captured using a Zeiss Axioplan 2 epifluorescence microscope.
as §1, with “After blocking with 5% non-fat milk plus 0.1% Tween-20, blots were incubated with primary antibodies (1:500), horseradish peroxidase-conjugated secondary antibodies (1:3000; Amersham Pharmacia Biotech), and enhanced chemiluminescence reagents (Amersham Pharmacia Biotech).” left out

[4] = tested on: cardiomyocytes; assay: Apoptosis as hypodiploid DNA by two-color flow cytometry in cultured cardiomyocytes; format: cell-based, rat
[5] = target: T1, HGK (Homo sapiens, UniProt O95819); assay: HGK immune complex kinase assay (recombinant FLAG-HGK in cardiomyocytes); format: cell-based; details: for HGK activity after agonist: 50 μg/ml C2-ceramide, 200 μM H2O2
T1 construct: expressed in transfected cells
T1 sequence (O95819 whole entry): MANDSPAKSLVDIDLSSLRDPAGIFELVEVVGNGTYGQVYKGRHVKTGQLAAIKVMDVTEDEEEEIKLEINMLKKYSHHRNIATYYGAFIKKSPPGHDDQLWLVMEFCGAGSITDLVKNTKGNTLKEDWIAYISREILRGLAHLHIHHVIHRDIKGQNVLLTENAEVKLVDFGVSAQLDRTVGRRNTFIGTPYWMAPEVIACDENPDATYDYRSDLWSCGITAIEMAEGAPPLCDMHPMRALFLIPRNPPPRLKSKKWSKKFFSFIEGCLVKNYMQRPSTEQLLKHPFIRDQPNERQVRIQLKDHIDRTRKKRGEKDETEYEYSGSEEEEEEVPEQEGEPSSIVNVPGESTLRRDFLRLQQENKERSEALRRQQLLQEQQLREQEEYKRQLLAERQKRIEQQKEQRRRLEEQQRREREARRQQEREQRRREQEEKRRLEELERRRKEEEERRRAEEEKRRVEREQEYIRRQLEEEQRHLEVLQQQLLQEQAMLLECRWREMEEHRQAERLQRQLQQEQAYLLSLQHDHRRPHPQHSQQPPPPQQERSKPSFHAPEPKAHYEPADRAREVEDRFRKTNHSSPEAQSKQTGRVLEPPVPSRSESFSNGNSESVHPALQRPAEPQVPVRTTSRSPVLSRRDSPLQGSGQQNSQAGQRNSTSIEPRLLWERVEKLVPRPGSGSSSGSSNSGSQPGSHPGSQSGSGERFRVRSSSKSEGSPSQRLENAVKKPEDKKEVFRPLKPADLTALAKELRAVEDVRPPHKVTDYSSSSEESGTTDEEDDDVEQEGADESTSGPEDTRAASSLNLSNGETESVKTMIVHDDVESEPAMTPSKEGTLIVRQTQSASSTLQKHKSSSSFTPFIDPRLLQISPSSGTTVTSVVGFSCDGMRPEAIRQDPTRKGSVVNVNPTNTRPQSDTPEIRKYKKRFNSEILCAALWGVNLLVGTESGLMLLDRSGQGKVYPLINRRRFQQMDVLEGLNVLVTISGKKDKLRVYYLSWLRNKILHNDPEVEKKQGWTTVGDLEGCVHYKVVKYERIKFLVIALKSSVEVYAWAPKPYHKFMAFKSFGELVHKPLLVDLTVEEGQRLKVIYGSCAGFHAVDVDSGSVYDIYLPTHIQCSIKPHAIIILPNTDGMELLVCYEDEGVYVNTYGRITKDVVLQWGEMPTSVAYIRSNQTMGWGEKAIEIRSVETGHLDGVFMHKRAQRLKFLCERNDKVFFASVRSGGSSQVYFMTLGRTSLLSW
From the text: HGK was alternatively spliced, with the presence or absence of an SH3-like domain being one potentially important difference. […] Dominant-negative, FLAG-tagged JNK1 (JNK1 APF). Viruses were engineered using pAd-Easy-1 and pShuttleCMV. Adenoviruses encoding wild-type and dominant-negative TRF2 were constructed analogously (Oh et al., 2003), using cDNAs.
For HGK immune complex kinase assays, recombinant HGK was precipitated using M2 antibody and protein G-Sepharose, in the lysis buffer above. Precipitates were washed twice in lysis buffer, twice with 500 mM LiCl, 100 mM Tris-HCl, pH 7.6, 0.1% Triton X-100, and twice with kinase buffer (20 mM MOPS, pH 7.6, 2 mM EGTA, 10 mM MgCl2, 1 mM dithiothreitol, 0.1% Triton X-100, 1 mM Na3VO4), then were mixed with 10 μg of myelin basic protein (MBP) (Invitrogen, Carlsbad, Calif.), as substrate, 15 μM ATP, and 10 μCi [γ-^32P]ATP in 30 μl of kinase buffer for 30 min at 30° C. (Yao et al., 1999). Reaction mixtures were resolved by SDS-polyacrylamide gel electrophoresis, then were analysed by autoradiography and Western blotting as above.

[6] = tested on: telomere length; assay: Telomere length by Southern blot with telomeric probe in cultured cardiomyocytes; format: cell-based, rat; details: gene transfer or treatment
From the text: (§2) DNA was digested with Rsa I, resolved by electrophoresis in 0.5% agarose, transferred to Hybond-N^+ membranes (Amersham Pharmacia Biotech), and hybridized using a ^32P-labeled (TTAGGG)4 telomeric probe (Oh, H. et al., 2001; Counter, C. M., 1992). Mean telomere length was ascertained by Phosphor-Imager scanning (Molecular Dynamics).

[7] = tested on: TRF2; assay: Endogenous TRF2 expression in NIH 3T3 cells after antisense oligonucleotide; format: cell-based, mouse; details: NIH 3T3 cells (not shown)
[8] = tested on: telomere length; assay: Telomere length by Southern blot after antisense transfection of mouse cardiomyocytes; format: cell-based; details: reduction of endogenous TRF2
From the text: (§3) The sequences used were: antisense TRF2 (asTRF2), 5′-[…]-3′ (SEQ ID NO:21); sense TRF2 (sTRF2), 5′-[…]-3′ (SEQ ID NO:22), antisense GFP (Sano, M. et al., 2002), 5′-[…]-3′ (SEQ ID NO:23). Oligonucleotides were transfected into 1-2 day-old C57BI/6 mouse cardiomyocytes, cultured as above, using Oligofectamine (Invitrogen).
as §2

[9] = tested on: C57BI/6 mouse cardiomyocytes; assay: Apoptosis by flow cytometry after antisense transfection of mouse cardiomyocytes; format: cell-based; details: reduction of endogenous TRF2
From the text: as §3
Hypodiploid DNA was detected by two-color flow cytometry using propidium iodide for DNA content and FITC-conjugated MF20 (Oh, H. et al., 2001; Akli, S. et al., 1999) or FITC-conjugated antibody to sarcomeric myosin heavy chains to confirm myocyte identity, sampling>5000 myocytes for each histogram.

[10] = tested on: TRF2; assay: Western blot of TRF2 after antisense oligonucleotide transfection of mouse cardiomyocytes; format: cell-based; details: Oligofectamine transfection
From the text: as §3, §1

[11] = tested on: poly (ADP-ribose) polymerase (PARP); assay: PARP cleavage by Western blot after antisense transfection of mouse cardiomyocytes; format: cell-based; details: reduction of endogenous TRF2
From the text: as §3, §1

[12] = tested on: Chk2; assay: Chk2 immune complex kinase assay after antisense transfection of mouse cardiomyocytes; format: cell-based; details: reduction of endogenous TRF2
Method: as §3
To assay Chk2 activity, samples were lysed in 20 mM Tris-HCl (pH 8.0), 0.1% Triton X-100, 10 mM NaF, 1 mM NaVa3VO4, […], 1 mM PMSF, then incubated for 1 hr with antibody to Chk2 and protein A/G-Sepharose (Pharmacia). lmrunoprecipitates were washed and assayed in the presence of 30 μM CHKtide substrate peptide ([…] (SEQ ID NO:24), Upstate Biotechnology, Inc), 40 μM adenosine triphosphate, 15 μCi [γ-^32P]ATP, for 30 min at 30° C. Proteins were resolved by electrophoresis in SDS-polyacrylamide gels and visualized by autoradiography. Aliquots of Chk2 immunoprecipitates were also used for Western blotting, allowing activity and content to be compared in the same samples.

[13] = cultured cardiomyocytes, gene transfer or treatment

Molecule: COc1cccc2c1C(=O)c1c(O)c3c(c(O)c1C2=O)C[C@@](O)(C(=O)CO)C[C@@H]3O[C@H]1C[C@H](N)[C@H](O)[C@H](C)O1 [doxorubicin]
- survival as of day 16 ([1]; littermate controls): 7%
- mice that had died by 7 days after injection ([1]; non-transgenic mice, n=14): 63%
- survival as of day 16 ([1]; αMHC-TRF2 mice): 36%
- deaths by 7 days after injection ([1]; αMHC-TRF2 mice, n=14): no deaths
- time until loss of PARP (caspase-3 activation) was comparable to the TRF2 loss ([2]; cardiac myocytes, 1 μM doxorubicin): 48 h
- TRF2 protein expression decreased ([3]; cardiac myocytes, 1 μM doxorubicin, within 8 hr): 50%
- induction of cardiac myocyte apoptosis (hypodiploid myocytes) ([4]; doxorubicin administered to myocytes): induced cardiac myocyte apoptosis

Molecule: CCCCCCCCCCCCC/C=C/[C@@H](O)[C@H](CO)NC(C)=O [ceramide, N-acetyl-D-sphingosine]
- HGK activity after agonist [5]: activated further; also recorded: potent activator of HGK
- TRF2 levels ([3]; viral delivery or ceramide treatment): reduced TRF2 levels
- increase in hypodiploid myocytes ([4]; ceramide treatment): 20 fold

Molecule: OO [H2O2]
- PARP cleavage [2, 13]: induced
- HGK activity after agonist [5]: activated
- time to decrease of endogenous TRF2 ([3]; cardiomyocytes, 100 μM H2O2): ≤ 2 h
- telomere erosion / shortening [6]: induced
- apoptosis (hypodiploid DNA) [4, 13]: induced

Molecule: 5′-CCTGGGCTGCCGGCTCGAGC-3′ (all phosphorothioate, sugars by position and methylation of C not given here) [antisense TRF2]
- endogenous TRF2 expression [7]: inhibited endogenous TRF2 expression effectively
- induction of HGK activity ([5]; antisense suppression of endogenous TRF2, antisense GFP as control): more than 50%
- increase of HGK kinase activity ([5]; mouse cardiomyocytes, antisense oligo transfection, HGK adenovirus): 1.5 fold
- telomere shortening [8]: telomere shortening
- apoptosis [9]: apoptosis
- TRF2 protein level [10]: specifically reduced
- PARP cleavage [11]: PARP cleavage
- Chk2 activation [12]: Chk2 activation
